# Measured values as given in patent US20030134901A1, “Lipoxin compounds and their use in treating cell proliferative disorders” (priority 1993, published 2003).
# Assays:
# [1] = target: T1, 15-PGDH (Homo sapiens, UniProt P15428); settings: 15-PGDH of HL-60 cells (Agins et al. 1987); cited from earlier work
# T1 construct: 100,000 g supernatants prepared from PMA-treated HL-60 cells converted 15-HETE to 15-oxo-ETE; endogenous in cells; host or cells: HL-60 cells treated with PMA (16 nM, 24-72 h); freeze-thaw lysate, 100,000 g supernatant
# T1 sequence (P15428 1-266): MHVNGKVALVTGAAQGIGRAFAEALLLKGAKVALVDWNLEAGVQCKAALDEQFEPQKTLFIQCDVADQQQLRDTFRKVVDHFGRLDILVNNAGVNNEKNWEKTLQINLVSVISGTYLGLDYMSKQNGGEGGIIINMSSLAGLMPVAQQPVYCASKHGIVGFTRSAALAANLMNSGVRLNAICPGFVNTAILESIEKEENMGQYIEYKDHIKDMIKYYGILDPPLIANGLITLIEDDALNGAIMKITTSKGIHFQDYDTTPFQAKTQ
# [2] = test system: A549 cell-PMN costimulation; test: Eicosanoid formation in A549 cell-PMN coincubations; format: cell-based, human; settings: A549 cells exposed 20 min before addition of PMN
# Procedure: In coincubation experiments, confluent A549 cells were exposed to IL-1β (1 ng/ml, 24 h), washed in HBSS and treated with vehicle alone or ASA for 20 min and arachidonic acid ([…] for 60 seconds at 37° C. Coincubations were performed by adding PMN to A549 cell monolayers followed by costimulation with ionophore A23187 (5 μM) in 4 ml of HBSS for 30 min at 37° C.
# For analysis of LXs (including LXs and 15-epi-LXs) from A549 cell-PMN, coincubations were carried out using either a Waters (Bondapak C18 ([…]) column eluted with an isocratic mobile phase MeOH/H2O/acetic acid (60:40:0.01; v/v/v) with a flow rate of 0.6 ml/min or an Altex Ultrasphere ODS column (5 μm, 10 ×25 cm) eluted with MeOH/H2O/acetic acid (65:35:0.01; v/v/v) at a flow of 3 ml/min. Peptidoleukotrienes (LTC4 and LTD4) eluted in the MeOH fractions from Sep-Pak cartridge extractions were resolved with a Beckman Ultrasphere-ODS column eluted with MeOH/H2O/acetic acid (65:35:0.01; v/v/v), pH 5.7, at 1 ml/min. […] The material beneath peaks absorbing at 300 nm were individually collected after RP-HPLC and analyzed by gas chromatography-mass spectrometry (GC-MS) employing a Hewlett-Packard 5890 GC series II equipped with a 5971A mass-selective quadrapole detector as in Clària, J. and Serhan, C. […]
# [3] = test system: A549 cells; test: 15-HETE generation by IL-1β-treated A549 cells; format: cell-based, human
# Procedure: FIG. 3 is a graph showing the relative chiralities of 15-HETE triggered by ASA. A549 cells (10^7 cells per flask) were exposed to IL-1β (1 ng/ml) for 24 h, treated with vehicle (0.1% vol/vol ethanol) (□) or ASA (▪) for 20 min and then incubated (30 min, 37° C.) in HBSS containing arachidonic acid (20 μM) and A23187 (5 μM). Products were chromatographed by RP-HPLC (as in FIG. 1B) and the region containing 15-HETE was collected, extracted with chloroform and treated with diazomethane. Chiral analysis was performed with a Bakerbond DNBPG (see Methods for details). Results are representative of two separate experiments showing similar results.
# In incubations involving permeabilized A549 cells (prepared by a rapid freeze-thaw cycle), IL-1β-treated (1 ng/ml, 24 h) A549 cells (1.5×10^6 cells/ml) were pretreated for 20 min with either vehicle (0.1% EtOH), ASA (500 (M; used throughout), 5 (M 17-ODYA, an inhibitor of cytochrome P450, (Muerhoff A. S., et al. (1989) Prostaglandin and fatty acid ω and (ω-1)-oxidation in rabbit lung: acetylenic fatty acid mechanism-based inactivators as specific inhibitors. J Biol.Chem. 244: 749-756.), or […] Rev 5901 isomer, a 5-LO inhibitor, subjected to two cycles of rapid freezing in a dry ice-acetone bath and thawing to room temperature (full cycle <20 min), and incubated with arachidonic acid ([…] for 20 min at 37° C. in 4 ml of DPBS^2+. In experiments involving radiolabeled arachidonic acid, incubations were initiated with the addition of [^3H]-arachidonic acid (0.25 (Ci/ml) plus unlabeled arachidonic acid ([…] for 20 min at 37° C.
# For time-course experiments involving the generation of 15-HETE from endogenous sources (see FIG. 2B), intact A549 cells were exposed to IL-1β (1 ng/ml) for up to 48 h and then treated with vehicle (containing 0.1% EtOH) or ASA for 20 min followed by addition of ionophore A23187 (5 μM) in 4 ml of HBSS for 30 min at 37° C.
# The monohydroxy eicosanoids (i. e. 5-, 12- and 15-HETE) from A549 cells were analyzed using a Ultrasphere-ODS column (5 μm, 4.6 mm×25 cm) (Beckman Instruments, Fullerton, Calif.) was eluted with MeOH/H2O/acetic acid (65:35:0.01; v/v/v) as phase one (t0-20 min), and a linear gradient with MeOH/acetic acid (99.9:0.1, v/v) as phase two (20-45 min) at a flow rate of 1.0 ml/min. The R- and S-enantiomers of 15-HETE were resolved and identified using a chiral HPLC system similar to that reported by Hawkins et al. (1988). […] When indicated, generation of 15-HETE from endogenous sources was monitored by radioimmunoassay (RIA). […]
# [4] = test system: HUVEC; test: 3H-LTB4 binding to HUVEC; design: species or system human; settings: 3H-LTB4, n=3
# Procedure: Cell cultures and differentiation. HL-60 cells were seeded in RPMI medium supplemented with 100 U/ml penicillin, 100 μg/ml streptomycin, and 10% fetal calf serum (Hyclone, Logan, Utah), incubated at 37° C. with 5% CO2 atmosphere in 250 ml flasks. Individual flasks containing ˜[…] next received dimethyl sulfoxide (DMSO) (1.12% v/v, 120 h) or retinoic acid (RA) (1 μM, 120 h) or phorbol myristate acetate (PMA) (20 nM, 48 h). Before performing binding assays, cells were washed twice in phosphate buffered saline (PBS), Ca^2+- and Mg^2+-free, enumerated and suspended at 20×10^6 cells/ml in Tris buffer (10 mM), pH 7.4 (Fiore, S. et al.(1992) J. Biol. Chem. 267:16168). Nitro blue tetrazolium reduction was performed to monitor induction of polymorphonuclear phenotype as in (Imaizumi, M. and Breitman, T. R. (1986) Blood 67:1273), and cell adherence was determined for induction of macrophage-like phenotype (Collins, S. J. (1987) Blood 70:1273). […]
# Ligand binding. ^3H-LXA4 and ^3H-LTB4 binding was performed essentially as in Fiore, S. et al.(1992) J. Biol. Chem. 267:16168. […] The incubations were rapidly centrifuged (60 sec, 12,000 g) on silicon oil (d=1.028), and cell-associated radioactivity was determined by liquid scintillation counting (Wallac 1409, Pharmacia, Piscataway, N.J.). […]
# [5] = target: T2, LXA4 specific binding sites of differentiated HL-60 cells (Homo sapiens, UniProt P25090); test: 3H-LXA4 specific binding to differentiated HL-60 cells; settings: competition, competitor 300 nM where printed
# T2 construct: endogenous in cells; host or cells: HL-60 cells differentiated with DMSO, retinoic acid or PMA; intact cells
# T2 sequence (P25090 1-351): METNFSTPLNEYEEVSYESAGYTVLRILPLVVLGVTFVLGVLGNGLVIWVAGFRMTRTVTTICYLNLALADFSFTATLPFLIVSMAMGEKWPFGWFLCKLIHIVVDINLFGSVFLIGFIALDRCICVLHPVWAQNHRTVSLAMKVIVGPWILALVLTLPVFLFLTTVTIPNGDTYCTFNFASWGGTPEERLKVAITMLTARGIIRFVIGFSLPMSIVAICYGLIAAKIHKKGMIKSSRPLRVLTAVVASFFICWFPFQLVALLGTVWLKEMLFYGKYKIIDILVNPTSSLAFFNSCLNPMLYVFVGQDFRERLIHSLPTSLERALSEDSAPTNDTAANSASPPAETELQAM
# [6] = pretreatment 20 min, 37° C., chiral HPLC
compound,measurement,setting,value
"CCCCC[C@H](O)/C=C/C=C\C/C=C\C/C=C\CCCC(=O)O [15-HETE, 15-hydroxyeicosatetraenoic acid]",substrate efficiency compared to PGE2,[1],92%
"CC(=O)Oc1ccccc1C(=O)O [ASA, acetylsalicylic acid]",formation of LXs,[2],increase in the formation of LXs
same,formation of pLTs (LTC4 plus LTD4),[2],decrease in pLTs
same,effect on formation of 15-HETE,"[3]; permeabilized IL-1β-treated A549 cells, arachidonic acid 20 μM",marked increase
same,formation of 15S-HETE,[3]; [6],remained unaltered
same,increase in the amounts of 15R-HETE,[3]; [6],3 fold
"CCCCC/C=C\C[C@@H](O)/C=C/C=C/C=C\[C@@H](O)CCCC(=O)O [LTB4, leukotriene B4]",specific binding to HUVEC,[4],did not specifically bind
same,displacement of 3H-LXA4 specific binding,[5],"Neither LXB4, LTB4, nor trihydroxyheptanoic acid (methyl ester) (300 nM) were able to displace"
